Results taken from US9670191B2, “Pyridyl-and pyrimidinyl-substituted pyrrole-, thiophene- and furane-derivatives as kinase inhibitors” (priority 2006, dated 2017).
pIC50: −log10 of the molar value. Counter-ions that a name gives are not always drawn.

target: Cdc7/Dbf4 (Homo sapiens (Human), UniProt O00311); experiment: Inhibition assay of Cdc7/Dbf4 activity (Dowex resin capture, 33P-ATP, MCM2 substrate); assay type: biochemical; conditions: not given
Procedure: Inhibition Assay of Cdc7 Activity
The inhibiting activity of putative Cdc7 inhibitors and the potency of selected compounds is determined through a method of assay based on the use of Dowex resin capture technology.
The assay consists of the transfer of radioactivity labeled phosphate moiety by the kinase to an acceptor substrate. The resulting 33P-labeled product is separated from unreacted tracer, transferred into a scintillation cocktail and light emitted is measured in a scintillation counter.
The inhibition assay of Cdc7/Dbf4 activity is performed according to the following protocol.
The MCM2 substrate is trans-phosphorylated by the Cdc7/Dbf4 complex in the presence of ATP traced with γ^33-ATP. The reaction is stopped by addition of Dowex resin in the presence of formic acid. Dowex resin particles capture unreacted γ^33-ATP and drag it to the bottom of the well while ^33P phosphorylated MCM2 substrate remains in solution. The supernatant is collected, transferred into Optiplate plates and the extent of substrate phosphorylation is evaluated by β counting.
The inhibition assay of Cdc7/Dbf4 activity was performed in 96 wells plate according to the following protocol.
The solvent for test compounds contained 3% DMSO (final concentration 1%) • 10 μl substrate MCM2 (6 μM final concentration), a mixture of cold ATP (2 μM final concentration) and radioactive ATP (1/5000 molar ratio with cold ATP). • 10 μl enzyme (Cdc7/Dbf4, 2 nM final concentration) that started the reaction. The buffer of the reaction consisted in 50 mM HEPES pH 7.9 containing 15 mM MgCl2, 2 mM DTT, 3 uM NaVO3, 2 mM glycerophosphate and 0.2 mg/ml BSA. • After incubation for 60 minutes at room temperature, the reaction was stopped by adding to each well 150 μl of Dowex resin in the presence of 150 mM formic acid. After another 60 min incubation, 50 μL of suspension were withdrawn and transferred into 96-well OPTIPLATEs containing 150 μl of MicroScint 40 (Packard); after 5-10 minutes shaking the plates were read for 1 min in a Packard TOP-Count radioactivity reader.
Experimental data were analyzed by the computer program Assay Explorer using the four parameter logistic equation: y=bottom+(top−bottom)/(1+10^((log IC50−x)*slope)) where x is the logarithm of the inhibitor concentration, y is the response; y starts at bottom and goes to top with a sigmoid shape.

Chain of Cdc7/Dbf4 (O00311 whole entry, looked up, species assumed): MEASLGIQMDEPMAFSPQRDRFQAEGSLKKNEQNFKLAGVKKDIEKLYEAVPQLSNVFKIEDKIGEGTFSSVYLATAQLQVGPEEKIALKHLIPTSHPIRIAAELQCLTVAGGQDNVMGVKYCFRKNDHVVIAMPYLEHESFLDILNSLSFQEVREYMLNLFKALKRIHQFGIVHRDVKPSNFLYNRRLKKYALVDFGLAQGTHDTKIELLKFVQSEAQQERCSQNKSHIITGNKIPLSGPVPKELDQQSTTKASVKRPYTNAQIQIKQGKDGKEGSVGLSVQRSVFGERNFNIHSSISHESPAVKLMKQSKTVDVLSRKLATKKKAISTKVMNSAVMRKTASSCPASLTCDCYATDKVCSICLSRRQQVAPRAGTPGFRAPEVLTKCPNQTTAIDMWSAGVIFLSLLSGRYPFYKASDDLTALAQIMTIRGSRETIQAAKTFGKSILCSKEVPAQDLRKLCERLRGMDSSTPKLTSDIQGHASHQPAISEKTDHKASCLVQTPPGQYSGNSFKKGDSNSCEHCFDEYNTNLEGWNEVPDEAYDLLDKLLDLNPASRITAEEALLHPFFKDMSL
Chain of Cdc7/Dbf4 (Q9UBU7 whole entry partner, looked up, species assumed): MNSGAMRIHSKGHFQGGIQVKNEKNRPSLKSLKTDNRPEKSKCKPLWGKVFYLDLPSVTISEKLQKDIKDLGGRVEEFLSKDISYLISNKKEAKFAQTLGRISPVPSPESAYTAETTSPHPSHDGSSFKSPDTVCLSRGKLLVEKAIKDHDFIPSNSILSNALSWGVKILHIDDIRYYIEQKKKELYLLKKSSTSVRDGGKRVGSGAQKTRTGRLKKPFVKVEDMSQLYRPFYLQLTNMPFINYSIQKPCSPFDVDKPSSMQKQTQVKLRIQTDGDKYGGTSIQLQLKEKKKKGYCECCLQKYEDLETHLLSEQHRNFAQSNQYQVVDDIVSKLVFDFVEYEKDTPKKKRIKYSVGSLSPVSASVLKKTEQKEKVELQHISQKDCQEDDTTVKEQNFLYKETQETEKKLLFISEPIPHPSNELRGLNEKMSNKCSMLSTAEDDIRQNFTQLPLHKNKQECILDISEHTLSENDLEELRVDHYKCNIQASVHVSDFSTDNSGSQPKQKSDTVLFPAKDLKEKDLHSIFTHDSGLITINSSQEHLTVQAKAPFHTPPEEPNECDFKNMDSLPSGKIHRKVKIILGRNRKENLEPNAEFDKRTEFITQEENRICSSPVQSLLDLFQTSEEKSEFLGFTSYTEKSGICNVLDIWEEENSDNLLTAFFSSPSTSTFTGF

Row | Structure (SMILES) | pIC50
1 | NC(=O)c1cc(-c2ccnc(Nc3ccccc3)n2)[nH]c1-c1ccccc1 [Compound H1, 2-Phenyl-5-(2-phenylamino-pyrimidin-4-yl)-1H-pyrrole-3-carboxylic acid amide] | 7.00 to 9.00
2 | NC(=O)c1cc(-c2ccncc2)[nH]c1-c1ccc(F)cc1 [Compound A4, 2-(4-Fluoro-phenyl-5-pyridin-4-yl-1H-pyrrole-3-carboxylic acid amide hydrochloride] | 7.00 to 9.00
3 | NC(=O)c1cc(-c2ccncc2F)[nH]c1-c1ccccc1 [Compound E1, 5-(3-Fluoro-pyridin-4-yl)-2-phenyl-1H-pyrrole-3-carboxylic acid amide] | 7.00 to 9.00
4 | Nc1nccc(-c2cc(C(=O)NCc3ccccc3)c(-c3ccccc3)[nH]2)n1 [Compound M3, 5-(2-Amino-pyrimidin-4-yl)-2-phenyl-1H-pyrrole-3-carboxylic acid benzylamide] | 7.00 to 9.00
5 | NC(=O)c1cc(-c2ccncc2)[nH]c1-c1ccccc1 [Compound A1, 2-Phenyl-5-pyridin-4-yl-1H-pyrrole-3-carboxylic acid amide] | 7.00 to 9.00
6 | NC(=O)c1cc(-c2ccncc2)[nH]c1-c1ccc(Br)cc1 [Compound A6, 2-(4-Bromo-phenyl)-5-pyridin-4-yl-1H-pyrrole-3-carboxylic acid amide hydrochloride] | 7.00 to 9.00
7 | CCn1c(-c2ccnc(N)n2)cc(C(N)=O)c1-c1ccccc1 [Compound L1, 5-(2-Amino-pyrimidin-4-yl)-1-ethyl-2-phenyl-1H-pyrrole-3-carboxylic acid amide] | 7.00 to 9.00
8 | Cc1ccc(-c2[nH]c(-c3ccncc3)cc2C(N)=O)cc1 [Compound A9, 5-pyridin-4-yl-2-p-tolyl-1H-pyrrole-3-carboxylic acid amide] | 7.00 to 9.00
9 | COc1ccccc1-c1[nH]c(-c2ccncc2)cc1C(N)=O [Compound A10, 2-(2-Methoxy-phenyl)-5-pyridin-4-yl-1H-pyrrole-3-carboxylic acid amide hydrochloride] | 7.00 to 9.00
10 | NC(=O)c1cc(-c2ccncc2)[nH]c1-c1cccc(F)c1 [Compound A3, 2-(3-Fluoro-phenyl)-5-pyridin-4-yl-1H-pyrrole-3-carboxylic acid amide] | 7.00 to 9.00
11 | NC(=O)c1cc(-c2ccncc2)[nH]c1-c1ccccc1F [Compound A2, 2-(2-Fluoro-phenyl)-5-pyridin-4-yl-1H-pyrrole-3-carboxylic acid amide hydrochloride] | 7.00 to 9.00
12 | NC(=O)c1cc(-c2ccnc(N)n2)[nH]c1-c1ccccc1 [Compound F1, 5-(2-Amino-pyrimidin-4-yl)-2-phenyl-1H-pyrrole-3-carboxylic acid amide] | 7.00 to 9.00
13 | Cc1cccc(-c2[nH]c(-c3ccncc3)cc2C(N)=O)c1 [Compound A8, 5-Pyridin-4-yl-2-m-tolyl-1H-pyrrole-3-carboxylic acid amide] | 7.00 to 9.00
14 | CC(C)NC(=O)c1cc(-c2ccnc(N)n2)[nH]c1-c1ccccc1 [Compound M2, 5-(2-Amino-pyrimidin-4-yl)-2-phenyl-1H-pyrrole-3-carboxylic acid isopropylamide] | 7.00 to 9.00
15 | NC(=O)c1cc(-c2ccnc(N)n2)[nH]c1-c1ccsc1 [Compound G1, 5-(2-amino-pyrimidin-4-yl)-2-thiophen-3-yl-1H-pyrrole-3-carboxylic acid amide] | 7.00 to 9.00
16 | COc1ccc(-c2[nH]c(-c3ccncc3)cc2C(N)=O)cc1 [Compound A12, 2-(4-Methoxy-phenyl)-5-pyridin-4-yl-1H-pyrrole-3-carboxylic acid amide hydrochloride] | 7.00 to 9.00
17 | COc1cccc(-c2[nH]c(-c3ccncc3)cc2C(N)=O)c1 [Compound A11, 2-(3-Methoxy-phenyl)-5-pyridin-4-yl-1H-pyrrole-3-carboxylic acid amide] | 7.00 to 9.00
18 | NC(=O)c1cc(-c2ccncc2)[nH]c1-c1cccc(Br)c1 [Compound A5, 2-(3-Bromo-phenyl-5-pyridin-4-yl-1H-pyrrole-3-carboxylic acid amide hydrochloride] | 7.00 to 9.00

same assay, conditions: MCM2 substrate 6 μM, ATP 2 μM, enzyme 2 nM, 60 minutes at room temperature; read-out: IC50 values on Cdc7/Dbf4

Row | Structure (SMILES) | pIC50
19 | NC(=O)c1cc(-c2ccncc2)[nH]c1-c1ccoc1 [Compound C2, 2-Furan-3-yl-5-pyridin-4-yl-1H-pyrrole-3-carboxylic acid amide] | 7.00 to 9.00
20 | Cc1cccc(-c2[nH]c(-c3ccncc3)cc2C(N)=O)c1C [Compound A20, 2-(2,3-Dimethyl-phenyl)-5-pyridin-4-yl-1H-pyrrole-3-carboxylic acid amide] | 7.00 to 9.00
21 | Nc1nccc(-c2cc(C(=O)NCC3CCCCC3)c(-c3ccccc3)[nH]2)n1 [Compound M4, 5-(2-Amino-pyrimidin-4-yl)-2-phenyl-1H-pyrrole-3-carboxylic acid cyclohexylmethyl-amide] | 7.00 to 9.00
22 | NC(=O)c1cc(-c2ccncc2)[nH]c1-c1ccsc1 [Compound C1, 5-Pyridin-4-yl-2-thiophen-3-yl-1H-pyrrole-3-carboxylic acid amide] | 7.00 to 9.00
23 | Cc1ccccc1-c1[nH]c(-c2ccncc2)cc1C(N)=O [Compound A7, 5-Pyridin-4-yl-2-o-tolyl-1H-pyrrole-3-carboxylic acid amide] | 7.00 to 9.00
